PubChem BioAssay AID330 (DTP/NCI, 2004)
Values joined by “and” are separate entries in the source; they are usually repeats but may differ in a detail not shown here. Equal entries are not always repeated. Inconclusive results and toxic doses are left out.

Test system: P388 leukemia ip, CD2F1 mice, survival T/C
Test: NCI In Vivo Anticancer Drug Screen. Data for tumor model P388 Leukemia (intraperitoneal) in CD2F1 (CDF1) mice
Conditions: endpoint: median survival time, higher = longer survival
Procedure, shortened: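 Mice carrying the transplanted tumor received test compound or vehicle. Survival was recorded in each group, and the value is the treated-group measurement divided by that of the vehicle-treated control group.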

[1] = dose: 50.0 mg/kg/injection, schedule: Q01DX005 (ip), vehicle: Klucel (hydroxypropylcellulose) (HPC)
[2] = dose: 100.0 mg/kg/injection, schedule: Q01DX005 (ip), vehicle: Klucel (hydroxypropylcellulose) (HPC)
[3] = dose: 60.0 mg/kg/injection, schedule: Q01DX005 (ip), vehicle: saline with Tween-80
[4] = dose: 120.0 mg/kg/injection, schedule: Q01DX005 (ip), vehicle: saline with Tween-80
[5] = dose: 240.0 mg/kg/injection, schedule: Q01DX005 (ip), vehicle: saline with Tween-80
[6] = dose: 25.0 mg/kg/injection, schedule: Q01DX005 (ip), vehicle: saline with Tween-80
[7] = dose: 50.0 mg/kg/injection, schedule: Q01DX005 (ip), vehicle: saline with Tween-80
[8] = dose: 100.0 mg/kg/injection, schedule: Q01DX005 (ip), vehicle: saline with Tween-80

CN(C(=O)C(Cl)Cl)c1ccc(-c2csc(Cc3ccccc3)n2)cc1
T/C (dose: 100.0 mg/kg/injection, schedule: Q04DX003 (ip), vehicle: Klucel (hydroxypropylcellulose) (HPC)): 101 % of control
T/C (dose: 200.0 mg/kg/injection, schedule: Q04DX003 (ip), vehicle: Klucel (hydroxypropylcellulose) (HPC)): 99 % of control
T/C (dose: 400.0 mg/kg/injection, schedule: Q04DX003 (ip), vehicle: Klucel (hydroxypropylcellulose) (HPC)): 97 % of control

CCC(=O)n1c(Cl)c(/C=N/NC(N)=S)c2ccccc21
T/C (dose: 100.0 mg/kg/injection, schedule: Q01DX001 (ip), vehicle: Klucel (hydroxypropylcellulose) (HPC)): 95 % of control
T/C (dose: 200.0 mg/kg/injection, schedule: Q01DX001 (ip), vehicle: Klucel (hydroxypropylcellulose) (HPC)): 100 % of control
T/C (dose: 400.0 mg/kg/injection, schedule: Q01DX001 (ip), vehicle: Klucel (hydroxypropylcellulose) (HPC)): 93 % of control

COC(=O)C1=C(C(=O)OC)P(I)(c2ccccc2)(c2ccccc2)N(C)C1(c1ccccc1)c1ccccc1
T/C [1]: 100 % of control
T/C [2]: 100 % of control
T/C (dose: 200.0 mg/kg/injection, schedule: Q01DX005 (ip), vehicle: Klucel (hydroxypropylcellulose) (HPC)): 90 % of control

O=C1NC2C(=CC(O)C(O)C2O)c2cc3c(cc21)OCO3 (configuration not stated)
T/C (dose: 3.12 mg/kg/injection, schedule: Q01DX009 (ip), vehicle: saline + alcohol): 102 % of control
T/C (dose: 6.25 mg/kg/injection, schedule: Q01DX005 (ip), vehicle: saline + alcohol): 111 % of control
T/C (dose: 6.25 mg/kg/injection, schedule: Q01DX009 (ip), vehicle: saline + alcohol): 102 % of control
T/C (dose: 12.5 mg/kg/injection, schedule: Q01DX005 (ip), vehicle: saline + alcohol): 111 % of control
T/C (dose: 25.0 mg/kg/injection, schedule: Q01DX005 (ip), vehicle: saline + alcohol): 105 % of control
T/C (dose: 25.0 mg/kg/injection, schedule: Q01DX009 (ip), vehicle: saline + alcohol): 101 % of control
T/C (dose: 50.0 mg/kg/injection, schedule: Q01DX005 (ip), vehicle: saline + alcohol): 105 % of control

N#CC(C=C(c1ccccc1)c1ccccc1)c1ccccc1 (configuration not stated)
T/C (dose: 100.0 mg/kg/injection, schedule: Q04DX003 (ip), vehicle: saline): 98 % of control
T/C (dose: 200.0 mg/kg/injection, schedule: Q04DX003 (ip), vehicle: saline): 98 % of control
T/C (dose: 400.0 mg/kg/injection, schedule: Q04DX003 (ip), vehicle: saline): 96 % of control

Nc1nnc(/C=C/c2ccc(Cl)c(Cl)c2)o1
T/C [3]: 95 % of control
T/C [4]: 103 % of control
T/C [5]: 102 % of control

CCOC(=O)c1c(=O)[nH]c(=O)n2c1[nH]c1ccccc12
T/C [3]: 93 % of control
T/C [4]: 91 % of control
T/C [5]: 90 % of control

O=S(=O)(O)c1ccc(OCCCCCCCCCCOc2ccc(S(=O)(=O)O)cc2)cc1
T/C (dose: 60.0 mg/kg/injection, schedule: Q01DX005 (ip), vehicle: saline): 105 % of control
T/C (dose: 120.0 mg/kg/injection, schedule: Q01DX005 (ip), vehicle: saline): 102 % of control
T/C (dose: 240.0 mg/kg/injection, schedule: Q01DX005 (ip), vehicle: saline): 98 % of control

O=S(=O)(F)c1ncc2[nH]cnc2n1
T/C (dose: 12.5 mg/kg/injection, schedule: Q01DX005 (ip), vehicle: saline with Tween-80): 109 % of control
T/C [6]: 114 % of control
T/C [7]: 106 % of control and 111 % of control
T/C [8]: 108 % of control

COc1cccc2c1C(=O)c1c(O)c3c(c(O)c1C2=O)C[C@@](O)(C(=O)CN1CCOCC1)C[C@@H]3OC1CC(N)C(O)C(C)O1 (some centres not stated)
T/C (dose: 1.3 mg/kg/injection, schedule: Q01DX001 (ip), vehicle: water): 116 % of control
T/C (dose: 1.56 mg/kg/injection, schedule: Q01DX009 (ip), vehicle: water): 103 % of control
T/C (dose: 1.8 mg/kg/injection, schedule: Q01DX001 (ip), vehicle: water): 114 % of control
T/C (dose: 2.4 mg/kg/injection, schedule: Q01DX001 (ip), vehicle: water): 116 % of control
T/C (dose: 3.13 mg/kg/injection, schedule: Q01DX009 (ip), vehicle: water): 115 % of control
T/C (dose: 3.2 mg/kg/injection, schedule: Q01DX001 (ip), vehicle: water): 119 % of control
T/C (dose: 4.2 mg/kg/injection, schedule: Q01DX001 (ip), vehicle: water): 119 % of control
T/C (dose: 5.56 mg/kg/injection, schedule: Q01DX009 (ip), vehicle: water): 156 % of control
T/C (dose: 8.33 mg/kg/injection, schedule: Q01DX009 (ip), vehicle: water): 162 % of control
T/C (dose: 10.0 mg/kg/injection, schedule: Q01DX001 (ip), vehicle: water): 119 % of control
T/C (dose: 18.8 mg/kg/injection, schedule: Q01DX009 (ip), vehicle: water): 153 % of control
T/C (dose: 50.0 mg/kg/injection, schedule: Q01DX001 (ip), vehicle: water): 162 % of control
T/C (dose: 100.0 mg/kg/injection, schedule: Q01DX001 (ip), vehicle: water): 174 % of control

c1ccc2c(SCCCSc3c4ccccc4nc4ccccc34)c3ccccc3nc2c1
T/C (dose: 60.0 mg/kg/injection, schedule: Q01DX005 (ip), vehicle: Klucel (hydroxypropylcellulose) (HPC)): 97 % of control
T/C (dose: 120.0 mg/kg/injection, schedule: Q01DX005 (ip), vehicle: Klucel (hydroxypropylcellulose) (HPC)): 91 % of control
T/C (dose: 240.0 mg/kg/injection, schedule: Q01DX005 (ip), vehicle: Klucel (hydroxypropylcellulose) (HPC)): 95 % of control

CCn1cnc2c(SC3CCCC3)ncnc21
T/C (dose: 100.0 mg/kg/injection, schedule: Q01DX009 (ip), vehicle: saline sonified): 105 % of control
T/C (dose: 200.0 mg/kg/injection, schedule: Q01DX009 (ip), vehicle: saline sonified): 110 % of control

CCN(CC)CCNc1ncnc2c1cnn2C
T/C (dose: 12.5 mg/kg/injection, schedule: Q01DX005 (ip), vehicle: saline): 106 % of control
T/C (dose: 25.0 mg/kg/injection, schedule: Q01DX005 (ip), vehicle: saline): 106 % of control
T/C [7]: 99 % of control
T/C (dose: 50.0 mg/kg/injection, schedule: Q01DX005 (ip), vehicle: saline): 106 % of control

CC1CCC(C(=O)C2CCCCC2CC2CCCCC2)CC1 (configuration not stated)
T/C [7]: 105 % of control
T/C [8]: 102 % of control
T/C (dose: 200.0 mg/kg/injection, schedule: Q01DX005 (ip), vehicle: saline with Tween-80): 96 % of control

N#Cc1ccc(NN=NCCCCl)cc1
T/C (dose: 25.0 mg/kg/injection, schedule: Q01DX005 (ip), vehicle: distilled water + Tween-80): 95 % of control
T/C [6]: 100 % of control
T/C (dose: 50.0 mg/kg/injection, schedule: Q01DX005 (ip), vehicle: distilled water + Tween-80): 93 % of control
T/C [7]: 100 % of control
T/C (dose: 100.0 mg/kg/injection, schedule: Q01DX005 (ip), vehicle: distilled water + Tween-80): 95 % of control
T/C [8]: 121 % of control

CC(C)(Br)C(=O)NN=C(c1ccccc1)c1ccccc1
T/C (dose: 50.0 mg/kg/injection, schedule: Q01DX009 (ip), vehicle: saline): 100 % of control
T/C (dose: 100.0 mg/kg/injection, schedule: Q01DX009 (ip), vehicle: saline): 100 % of control
T/C (dose: 200.0 mg/kg/injection, schedule: Q01DX009 (ip), vehicle: saline): 100 % of control

CC(C)N1CC(CCO)C(c2ccccc2)(c2ccccc2)C1 (configuration not stated)
T/C (dose: 50.0 mg/kg/injection, schedule: Q01DX009 (ip), vehicle: Klucel (hydroxypropylcellulose) (HPC)): 99 % of control
T/C (dose: 100.0 mg/kg/injection, schedule: Q01DX009 (ip), vehicle: Klucel (hydroxypropylcellulose) (HPC)): 97 % of control
T/C (dose: 200.0 mg/kg/injection, schedule: Q01DX009 (ip), vehicle: Klucel (hydroxypropylcellulose) (HPC)): 106 % of control

CCCCCC1=CC2C(=O)NC(=O)NC12 (configuration not stated)
T/C (dose: 12.5 mg/kg/injection, schedule: Q01DX005 (ip), vehicle: Klucel (hydroxypropylcellulose) (HPC)): 98 % of control
T/C (dose: 25.0 mg/kg/injection, schedule: Q01DX005 (ip), vehicle: Klucel (hydroxypropylcellulose) (HPC)): 97 % of control
T/C [1]: 105 % of control
T/C [2]: 96 % of control

Nc1cc(C(=O)O)cc(Cl)n1
T/C (dose: 3.12 mg/kg/injection, schedule: Q01DX009 (ip), vehicle: saline): 108 % of control
T/C (dose: 6.25 mg/kg/injection, schedule: Q01DX009 (ip), vehicle: saline): 101 % of control
T/C (dose: 12.5 mg/kg/injection, schedule: Q01DX009 (ip), vehicle: saline): 107 % of control
T/C (dose: 25.0 mg/kg/injection, schedule: Q01DX009 (ip), vehicle: saline): 111 % of control
